According to US20250011778A1, “APP iRNA Compositions and Methods of Use Thereof for Treating or Preventing Diseases Characterized by Enlarged Endosomes” (ALNYLAM PHARMACEUTICALS, INC., priority 2021, published 2025):
Entries after “also recorded” stand apart in the source; their conditions may differ.

Experiments:
Format in all cases: in vivo
[1] = tested on: IBA1; experiment: CVN mouse study, inflammation (IBA1 IHC and Iba1 qPCR)
Description: (§1) Male and female CVN mice were bred at CRL Germany and genotyped, housed, dosed and analyzed (IHC, ^1H-MRS and open field test) at CRL Finland, as previously reported, under regular temperature, humidity and light/dark cycle conditions (Wilcock et al. J. Neurosci. 28: 1537-1545; Colton et al. J. Neuropathol. Exp. Neurol. 73: 752-769; Kohonen et al. Nat. Commun. 8: 15932). Homozygous Tg-hAPP^SwDI/mNos2^−/− (CVN) mice were produced by crossing mice expressing the vasculotropic Swedish K670N/M671L, Dutch E693Q and Iowa D694N human APP mutations under control of the Thy-1 promoter (Davis et al. J. Biol. Chem. 279: 20296-20306) with mNos2^−/− (B6 129PNos2 tau1Lau/J) mice (Laubach et al. Am. J. Physiol. 275: H2211-H2218). The study was divided into two phases. In the first phase, 15 CVN mice were dosed by ICV at 3 months of age, with terminal tissue sampling at 6 months of age and 9 months of age. In the second phase, 40 CVN mice and 20 WT mice were divided into three experimental groups, with terminal tissue sampling at 9 months of age and 12 months of age. […] Mice were placed in the center of the chamber, and their behaviors were recorded for 30 minutes. The following parameters were recorded and analyzed: distance traveled, number of vertical rearings and average velocity. […]

[2] = tested on: APP mRNA; experiment: CVN mouse study, APP mRNA knockdown after ICV dose
Description: Male and female CVN mice were bred at CRL Germany and genotyped, housed, dosed and analyzed (IHC, ^1H-MRS and open field test) at CRL Finland, as previously reported, under regular temperature, humidity and light/dark cycle conditions (Wilcock et al. J. Neurosci. 28: 1537-1545; Colton et al. J. Neuropathol. Exp. Neurol. 73: 752-769; Kohonen et al. Nat. Commun. 8: 15932). Homozygous Tg-hAPP^SwDI/mNos2^−/− (CVN) mice were produced by crossing mice expressing the vasculotropic Swedish K670N/M671L, Dutch E693Q and Iowa D694N human APP mutations under control of the Thy-1 promoter (Davis et al. J. Biol. Chem. 279: 20296-20306) with mNos2^−/− (B6 129PNos2 tau1Lau/J) mice (Laubach et al. Am. J. Physiol. 275: H2211-H2218). The study was divided into two phases. In the first phase, 15 CVN mice were dosed by ICV at 3 months of age, with terminal tissue sampling at 6 months of age and 9 months of age. In the second phase, 40 CVN mice and 20 WT mice were divided into three experimental groups, with terminal tissue sampling at 9 months of age and 12 months of age. Metabolic analyses using ^1H-MRS were at 12 months of age, respectively, as previously described (Colton et al. J. Neuropathol. Exp. Neurol. 73: 752-769). Open field test measurements were performed at approximately 9 months of age. Activity chambers (Med Associates, 27×27×20.3 cm) were equipped with infrared beams. Mice were placed in the center of the chamber, and their behaviors were recorded for 30 minutes. The following parameters were recorded and analyzed: distance traveled, number of vertical rearings and average velocity. IHC was performed as described (Wilcock et al. J. Neurosci. 28: 1537-1545; Kan et al. J Neurosci. 35: 5969-5982) using anti-amyloid-beta antibody WO2 (Sigma-Aldrich, MABN10, lot 3557956, 1:500) and anti-IBA1 antibody (Wako Pure Chemicals, 01-1941, lot LEP3218, 1:200). All data are presented as mean±standard deviation or standard error of the mean, and differences were statistically significant at the P<0.05 level. Statistical analyses were performed using the PRISM statistical program (GraphPad Software).
ICV administration was performed using stereotaxically guided Hamilton syringe and infusion system (Harvard Apparatus). A single 5-μl unilateral injection was performed in the right lateral ventricle at the following coordinates: AP=−0.5 mm (posterior from bregma), ML=+1.0 mm and DV=−1.75 mm, using standard aseptic surgical procedures. After midline skin incision on the scalp, a burr hole was generated at selected coordinates using stereotaxic coordinates and a dental drill. Thereafter, a small puncture in the dura was made at the epicenter of the burr hole, and the needle was lowered to specified depth to reach the lateral ventricle. A Hamilton syringe with a 28-gauge blunt needle was filled with a volume slightly greater than 5 μl. Administration volume of the test articles was at 5 μl and infusion rate at 1 μl min^−1 (over 5 minutes). After the infusion, the needle was left in place for a stabilization period of 5 minutes before withdrawal from the ventricle. Withdrawal was performed slowly and paused for 30 seconds when the needle tip was at the cortical area. […]

[3] = tested on: AB40 deposits; experiment: CVN mouse study, Aβ40 (AB40) deposits by IHC; conditions: 6 months after dose, dosed pre-symptomatically, not significant (n=2-4)
Description: as §1

[4] = tested on: CVN mice; experiment: CVN mouse study, open field test; conditions: vs WT
Description: as §1

[5] = tested on: glutamate (Glu) and N-acetylaspartate (NAA); experiment: CVN mouse study, metabolites by 1H-MRS; conditions: 1H-MRS at 12 months of age (6 months post-dose)
Description: as §1

[6] = tested on: sAPPα protein; experiment: CVN mouse study, sAPPα protein after ICV dose; conditions: single 60 μg ICV, CSF
Description: as §1

## AD-454972: APP-targeting C16-siRNA; sense usasuga(Ahd)GfuUfCfAfucaucaaasasa, antisense VPusUfsuuug(Agn)ugaugaAfcUfucauasusc; SEQ 1435/1440 (sense UAUGAAGUUCAUCAUCAAAAA; antisense UUUUUGAUGAUGAACUUCAUAUC; C16 conjugate, chemical modifications, chemistry not fully specified)
[1]; after 6 months
  reduction of Iba1 mRNA expression: 20-30%
[1]; cortex and hippocampus, rate of increase over time
  IBA1 IHC intensity: significantly slower rate of increase
[2]; after 3 months
  reduction of APP mRNA in the cortex: approximately 25%
[2]; single 60 μg ICV, ventral cortex (VC)
  reduction of APP mRNA: 50%
[2]; single 120 μg ICV, 30 days post-dose, VC
  reduction of APP mRNA: ~75%
[2]; single 120 μg ICV, 60 days post-dose, VC
  reduction of APP mRNA: > 50%
[2]; single 120 μg ICV, 90 days, VC
  APP mRNA level: normalizing
[3]
  reduction of AB40 deposits: approximately 50%
[4]
  rearing frequency: normalization; also recorded: normalized
  total distance traveled: normalization; also recorded: normalized
[5]
  N-acetylaspartate (NAA) levels: little effect
[5]; vs WT
  glutamate (Glu) levels: normalization; also recorded: normalized
[6]
  reduction of sAPPα protein: 50%
